{"source": "patent US7863313B2", "about": "“Methods for the treatment of inflammatory diseases” (Cortical PTY LTD, priority 2003, dated 2011)", "key": {"[1]": {"test_system": "IL-1 induced COX-2 expression", "test": "MIF-dependent IL-1 induced fibroblast cyclooxygenase-2 expression (flow cytometry)", "type": "cell-based, human", "conditions": "IL-1+cpd2 versus IL-1; P<0.05; FIG. 4", "source_text": "The activity of the compounds of formula (I) were further studied in a bioassay utilising MIF-dependent activation of human dermal fibroblasts. Sampey et al have shown that induction of the expression of cyclooxygenase-2 (COX-2) by the cytokine interleukin 1 (IL-1) is dependent upon the presence of MIF, i.e. can be prevented using specific anti-MIF monoclonal antibody ^(17). IL-1-induced COX-2 expression is therefore a MIF-dependent event.\nS112 human dermal fibroblasts were propagated in RPMI/10% foetal calf serum (FCS). Prior to experimentation, cells were seeded at 2×10^5 cells/ml in RPMI/0.1% BSA for 18 hours. […] After 6 hours, cells were collected and intracellular COX-2 protein determined by permeabilisation flow cytometry, as described by Sampey et al ^(18). Cells permeabilised with 0.2% saponin were sequentially labelled with a mouse anti-human COX-2 monoclonal antibody and with sheep-anti-mouse F(ab)2 fragment labelled with fluoroscein isothiocyanate. Cellular fluorescence was determined using a flow cytometer. At least 5000 events were counted for each reading, each of which was performed in duplicate, and the results expressed in mean fluorescence intensity (MFI) after subtraction of negative control-labelled cell fluorescence.\nIn Table 2 and FIG. 2, the effect of each concentration of 2-(2-hydroxyethoxy)-2-(4-hydroxy-3-methylphenyl)-1,3-dioxolane (Compound 1) was determined by subtracting the IL-1+ compound-treated cell MFI from the IL-1-treated cell MFI, and expressed as % inhibition."}, "[2]": {"test_system": "antigen-specific T cell activation", "test": "MIF-dependent antigen-specific T cell activation (splenocytes, 3H-thymidine)", "type": "cell-based, mouse", "conditions": "100 nM-10 μM; mBSA 10 μg/ml; spleen cells of immunized C57Bl/6 mice; P<0.05; FIG. 5", "source_text": "The activity of compounds of formula (I) was further studied in a bioassay utilising MIF-dependent activation of murine T cell activation. The activation of T lymphocytes in response to exposure to a recall antigen is known to be dependent on the presence of MIF, i.e. can be prevented using specific anti-MIF monoclonal antibody^(7). Antigen-induced T cell activation is therefore a MIF-dependent phenomenon.\nSplenocytes were obtained by Hank's buffered saline flushing of spleens obtained from C57Bl/6 mice previously immunized with methylated bovine serum albumin (mBSA, Sigma Chemical Co., Castle Hill, Australia). Mice were immunized on day 0 with 200 μg mBSA emulsified in 0.2 ml of Freund's complete adjuvant (FCA) injected subcutaneously into the flank skin. On day 7, the mice received 100 μg mBSA/0.1 ml FCA by intradermal injection at the base of the tail. Spleens were removed on day 14 after first immunisation and a single cell suspension was prepared in DMEM containing 5% FCS and 0.05% 2-mercaptoethanol. […] The T cell proliferation response was determined by measuring the amount of [^3H] thymidine incorporation during the final 18 hr. The cells were harvested and radioactivity incorporation into the DNA was measured with a Wallac 1409 liquid scintillation counter (Pharmacia, Turku, Finland)."}}, "data": [{"smiles": "OCCOC1(c2ccc(O)cc2)OCCO1", "note": "[Compound 2, 2-(2-hydroxyethoxy)-2-(4-hydroxyphenyl)-1,3-dioxolane]", "values": [{"measurement": "inhibition of IL-induced COX-2 expression, MFI", "setting": "[1]", "result": "Significant inhibition"}, {"measurement": "reduction in antigen-specific T cell activation", "setting": "[2]", "result": "significant dose-dependent reduction"}]}]}
